In ChEMBL document CHEMBL3621198, “Probing cytochrome P450-mediated activation with a truncated azinomycin analogue” (Medchemcomm, 2015):
Values belong to the molecule of their own block, whether it stands above or below them. Active and inactive are the calls of the source. The rule behind the calls is not given here.

What was measured:
[1] = test system: CHO; experiment: Cytotoxicity against CHO cells transfected with CYP1A1 assessed as growth inhibition after 96 hrs by MTT assay; type: functional, cell-based; conditions: Cricetulus griseus
[2] = test system: CHO; experiment: Cytotoxicity against wild type CHO cells assessed as growth inhibition after 96 hrs by MTT assay; type: functional, cell-based; conditions: Cricetulus griseus
[3] = target: T1, Cytochrome P450 1B1 (Homo sapiens, UniProt Q16678); experiment: Drug level in presence of CYP1B1 (unknown origin) expressed in bactosomes treated with 1-amino-3-methyl-1-oxobut-3-en-2-yl 3-methoxy-5-methyl-1-naphthoate measured for 180 mins by LC/MS/MS analysis; type: ADME; conditions: recombinant enzyme, 3 h
T1 sequence (Q16678 whole entry): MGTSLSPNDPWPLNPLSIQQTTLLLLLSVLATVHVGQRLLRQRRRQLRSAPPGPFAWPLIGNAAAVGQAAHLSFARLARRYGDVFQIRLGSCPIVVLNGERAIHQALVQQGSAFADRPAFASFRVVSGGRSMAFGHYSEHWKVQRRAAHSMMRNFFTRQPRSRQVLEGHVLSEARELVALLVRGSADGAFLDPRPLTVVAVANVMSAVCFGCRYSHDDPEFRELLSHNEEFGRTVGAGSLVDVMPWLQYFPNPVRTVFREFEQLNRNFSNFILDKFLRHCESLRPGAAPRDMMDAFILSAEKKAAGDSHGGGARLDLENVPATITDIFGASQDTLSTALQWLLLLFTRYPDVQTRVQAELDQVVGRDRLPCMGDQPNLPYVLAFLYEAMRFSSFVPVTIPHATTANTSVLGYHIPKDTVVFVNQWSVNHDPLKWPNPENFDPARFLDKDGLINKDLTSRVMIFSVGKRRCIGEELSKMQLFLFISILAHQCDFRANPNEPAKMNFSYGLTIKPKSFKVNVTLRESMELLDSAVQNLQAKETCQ

[4] = target: T2, Cytochrome P450 3A4 (Homo sapiens, UniProt P08684); experiment: Drug level in presence of CYP3A4 (unknown origin) expressed in bactosomes treated with 1-amino-3-methyl-1-oxobut-3-en-2-yl 3-methoxy-5-methyl-1-naphthoate measured for 180 mins by LC/MS/MS analysis; type: ADME; conditions: recombinant enzyme, 3 h
[5] = target: T3, Cytochrome P450 1A1 (Homo sapiens, UniProt P04798); experiment: Drug level in presence of CYP1A1 (unknown origin) expressed in bactosomes treated with 1-amino-3-methyl-1-oxobut-3-en-2-yl 3-methoxy-5-methyl-1-naphthoate measured for 180 mins by LC/MS/MS analysis; type: ADME; conditions: recombinant enzyme, 3 h
T3 sequence (P04798 whole entry): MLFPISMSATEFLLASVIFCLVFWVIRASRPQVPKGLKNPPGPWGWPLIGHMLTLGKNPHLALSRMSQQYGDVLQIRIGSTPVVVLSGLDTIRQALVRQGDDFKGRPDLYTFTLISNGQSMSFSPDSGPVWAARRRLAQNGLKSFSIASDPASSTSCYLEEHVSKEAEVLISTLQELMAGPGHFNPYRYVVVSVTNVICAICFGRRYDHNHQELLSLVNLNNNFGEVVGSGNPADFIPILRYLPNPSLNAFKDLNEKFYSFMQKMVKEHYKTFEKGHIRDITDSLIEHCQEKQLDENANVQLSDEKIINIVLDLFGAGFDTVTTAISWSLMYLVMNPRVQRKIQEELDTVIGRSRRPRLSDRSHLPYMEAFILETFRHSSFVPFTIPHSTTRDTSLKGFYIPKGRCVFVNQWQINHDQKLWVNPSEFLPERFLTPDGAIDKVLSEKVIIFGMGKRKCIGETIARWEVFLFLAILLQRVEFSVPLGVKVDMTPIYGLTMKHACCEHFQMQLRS

[6] = test system: CHO; experiment: Cytotoxicity against wild type CHO cells assessed as growth inhibition preincubated with CYP1A1 expressed in bactosomes for 1 hr followed by cell addition measured after 96 hrs by MTT assay; type: functional, cell-based; conditions: Cricetulus griseus
[7] = test system: CHO; experiment: Potentiation factor, ratio of IC50 for wild type CHO cells in absence of CYP1A1 expressed in bactosomes to IC50 for wild type CHO cells in presence of CYP1A1 expressed in bactosomes; type: functional, Cricetulus griseus
[8] = target: T2, Cytochrome P450 3A4; experiment: Drug metabolism assessed as CYP3A4 (unknown origin) expressed in bactosomes-mediated (1S)-2-amino-1-(2-methyloxiran-2-yl)-2-oxoethyl 3-methoxy-5-methyl-1-naphthoate formation measured for 180 mins by LC/MS/MS analysis; type: ADME; conditions: recombinant enzyme, 3 h
[9] = test system: CHO; experiment: Induction of DNA damage in wild type CHO cells assessed as DNA double strand breaks by measuring increase in mean tail moment at 50 uM after 1 hr by neutral comet assay in presence of CYP3A4 expressed in bactosomes; type: functional, cell-based; conditions: Cricetulus griseus
[10] = target: T3, Cytochrome P450 1A1; experiment: Drug metabolism assessed as CYP1A1 (unknown origin) expressed in bactosomes-mediated (1R)-2-amino-1-(2-methyloxiran-2-yl)-2-oxoethyl 3-methoxy-5-methyl-1-naphthoate formation measured for 180 mins by LC/MS/MS analysis; type: ADME; conditions: recombinant enzyme, 3 h
[11] = test system: SGC-7901; experiment: Cytotoxicity against human SGC7901 cells expressing CYP1A1 protein assessed as growth inhibition after 96 hrs by MTT assay; type: functional, cell-based
[12] = test system: MKN-45; experiment: Cytotoxicity against human MKN45 cells expressing CYP3A4 protein assessed as growth inhibition after 96 hrs by MTT assay; type: functional, cell-based
[13] = test system: CHO; experiment: Induction of DNA damage in wild type CHO cells assessed as DNA single strand breaks at 50 uM after 1 hr by alkaline comet assay in absence of CYP3A4 expressed in bactosomes; type: functional, cell-based; conditions: Cricetulus griseus
[14] = test system: CHO; experiment: Cytotoxicity against wild type CHO cells assessed as growth inhibition preincubated with CYP1A2 expressed in bactosomes for 1 hr followed by cell addition measured after 96 hrs by MTT assay; type: functional, cell-based; conditions: Cricetulus griseus
[15] = test system: CHO; experiment: Induction of DNA damage in wild type CHO cells assessed as DNA double strand breaks by measuring increase in mean tail moment at 50 uM after 1 hr by neutral comet assay in absence of CYP3A4 expressed in bactosomes; type: functional, cell-based; conditions: Cricetulus griseus
[16] = test system: CHO; experiment: Cytotoxicity against wild type CHO cells assessed as growth inhibition preincubated with CYP2D6 expressed in bactosomes for 1 hr followed by cell addition measured after 96 hrs by MTT assay; type: functional, cell-based; conditions: Cricetulus griseus
[17] = test system: SGC-7901; experiment: Cytotoxicity against human SGC7901 cells expressing CYP3A4 protein assessed as growth inhibition after 96 hrs by MTT assay; type: functional, cell-based
[18] = test system: CHO; experiment: Induction of DNA damage in wild type CHO cells assessed as DNA single strand breaks at 50 uM after 1 hr by alkaline comet assay in presence of CYP3A4 expressed in bactosomes; type: functional, cell-based; conditions: Cricetulus griseus
[19] = test system: SW480; experiment: Cytotoxicity against human SW480 cells transfected with CYP2W1 assessed as growth inhibition at 0.001 to 100 uM after 96 hrs by MTT assay; type: functional, cell-based
[20] = test system: CHO; experiment: Cytotoxicity against wild type CHO cells assessed as growth inhibition preincubated with CYP3A4 expressed in bactosomes for 1 hr followed by cell addition measured after 96 hrs by MTT assay; type: functional, cell-based; conditions: Cricetulus griseus
[21] = test system: CHO; experiment: Potentiation factor, ratio of IC50 for wild type CHO cells in absence of CYP1A2 expressed in bactosomes to IC50 for wild type CHO cells in presence of CYP1A2 expressed in bactosomes; type: functional, Cricetulus griseus
[22] = test system: MKN-45; experiment: Cytotoxicity against human MKN45 cells expressing CYP3A4 mRNA assessed as growth inhibition after 96 hrs by MTT assay; type: functional, cell-based
[23] = test system: CHO; experiment: Potentiation factor, ratio of IC50 for wild type CHO cells in absence of CYP2D6 expressed in bactosomes to IC50 for wild type CHO cells in presence of CYP2D6 expressed in bactosomes; type: functional, Cricetulus griseus
[24] = test system: MKN-45; experiment: Cytotoxicity against human MKN45 cells expressing CYP1A1 protein assessed as growth inhibition after 96 hrs by MTT assay; type: functional, cell-based
[25] = test system: CHO; experiment: Induction of DNA damage in wild type CHO cells assessed as DNA interstrand cross-links by measuring decrease in mean tail moment at 50 uM after 1 hr by alkaline comet assay in absence of CYP3A4 bactosomes; type: functional, cell-based; conditions: Cricetulus griseus
[26] = target: T1, Cytochrome P450 1B1; experiment: Drug metabolism assessed as CYP1B1 (unknown origin) expressed in bactosomes-mediated (1R)-2-amino-1-(2-methyloxiran-2-yl)-2-oxoethyl 3-methoxy-5-methyl-1-naphthoate/(1S)-2-amino-1-(2-methyloxiran-2-yl)-2-oxoethyl 3-methoxy-5-methyl-1-naphthoate formation measured for 180 mins by LC/MS/MS analysis; type: ADME; conditions: recombinant enzyme, 3 h
[27] = test system: CHO; experiment: Potentiation factor, ratio of IC50 for wild type CHO cells in absence of CYP1B1 expressed in bactosomes to IC50 for wild type CHO cells in presence of CYP1B1 expressed in bactosomes; type: functional, Cricetulus griseus
[28] = test system: SGC-7901; experiment: Cytotoxicity against human SGC7901 cells expressing CYP1A1 mRNA assessed as growth inhibition after 96 hrs by MTT assay; type: functional, cell-based
[29] = test system: SGC-7901; experiment: Cytotoxicity against human SGC7901 cells expressing CYP3A4 mRNA assessed as growth inhibition after 96 hrs by MTT assay; type: functional, cell-based
[30] = test system: CHO; experiment: Induction of DNA damage in wild type CHO cells assessed as DNA interstrand cross-links by measuring decrease in mean tail moment at 50 uM after 1 hr by alkaline comet assay in presence of CYP3A4 expressed in bactosomes; type: functional, cell-based; conditions: Cricetulus griseus
[31] = test system: CHO; experiment: Potentiation factor, ratio of IC50 for wild type CHO cells in absence of CYP3A4 expressed in bactosomes to IC50 for wild type CHO cells in presence of CYP3A4 expressed in bactosomes; type: functional, Cricetulus griseus
[32] = test system: CHO; experiment: Cytotoxicity against wild type CHO cells assessed as growth inhibition preincubated with CYP1B1 expressed in bactosomes for 1 hr followed by cell addition measured after 96 hrs by MTT assay; type: functional, cell-based; conditions: Cricetulus griseus
[33] = test system: MKN-45; experiment: Cytotoxicity against human MKN45 cells expressing CYP1A1 mRNA assessed as growth inhibition after 96 hrs by MTT assay; type: functional, cell-based

T2 sequence (P08684 whole entry): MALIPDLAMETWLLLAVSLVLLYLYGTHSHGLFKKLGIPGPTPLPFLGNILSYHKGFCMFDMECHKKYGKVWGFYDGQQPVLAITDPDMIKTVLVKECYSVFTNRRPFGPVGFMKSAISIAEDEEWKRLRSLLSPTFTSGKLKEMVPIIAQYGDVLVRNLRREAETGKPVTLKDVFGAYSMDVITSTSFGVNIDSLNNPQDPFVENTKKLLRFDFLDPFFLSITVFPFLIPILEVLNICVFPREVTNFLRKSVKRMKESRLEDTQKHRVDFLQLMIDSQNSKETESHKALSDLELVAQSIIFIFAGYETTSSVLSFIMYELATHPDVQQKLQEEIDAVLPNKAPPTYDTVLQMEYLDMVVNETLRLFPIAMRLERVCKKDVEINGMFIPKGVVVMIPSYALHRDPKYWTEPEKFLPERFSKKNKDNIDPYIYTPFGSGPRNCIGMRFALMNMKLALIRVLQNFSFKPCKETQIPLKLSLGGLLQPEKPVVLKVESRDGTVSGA

SMILES: Cc1ccc(C(=O)O[C@H](C(N)=O)C2(C)CO2)c2ccccc12 (stereo partly specified)
IC50 [1]: 3 µM | IC50 [2]: 6 µM

Drug metabolism [3]: metabolite_detected | Drug metabolism [4]: metabolite_detected
SMILES: COc1cc(C(=O)O[C@H](C(N)=O)C2(C)CO2)c2cccc(C)c2c1 (stereo partly specified)
IC50 [1]: 3.2 µM | IC50 [2]: 2.8 µM

SMILES: CC1([C@H](OC(=O)c2cccc3ccccc23)C(N)=O)CO1 (stereo partly specified)
IC50 [1]: 5 µM | IC50 [2]: 10 µM

Drug metabolism [3]: metabolite_detected | Drug metabolism [5]: metabolite_detected
SMILES: COc1cc(C(=O)O[C@@H](C(N)=O)C2(C)CO2)c2cccc(C)c2c1 (stereo partly specified)
IC50 [1]: 6 µM | IC50 [2]: 5.7 µM

SMILES: C=C(C)[C@@H](OC(=O)c1ccc(C)c2ccccc12)C(N)=O
IC50 [1]: > 100 µM | IC50 [2]: > 100 µM

Drug metabolism [8]: metabolite_detected | Drug metabolism [10]: metabolite_detected | Drug metabolism [26]: metabolite_detected
SMILES: C=C(C)[C@@H](OC(=O)c1cc(OC)cc2c(C)cccc12)C(N)=O
IC50 [6]: 14.2 µM | Ratio IC50 [7]: 5.8 | Activity [9]: inactive | growth inhibition (GI) [11]: Dose-dependent effect | growth inhibition (GI) [12]: Dose-dependent effect | Activity [13]: inactive | IC50 [14]: 20.3 µM | Activity [15]: inactive | IC50 [16]: 28.3 µM | IC50 [1]: 6.3 µM | growth inhibition (GI) [17]: Dose-dependent effect | Activity [18]: Active | growth inhibition (GI) [19]: inactive | IC50 [20]: 3.34 µM | IC50 [2]: 81.6 µM | Ratio IC50 [21]: 4 | growth inhibition (GI) [22]: Dose-dependent effect | Ratio IC50 [23]: 2.9 | growth inhibition (GI) [24]: Dose-dependent effect | Activity [25]: inactive | Ratio IC50 [27]: 7 | growth inhibition (GI) [28]: Dose-dependent effect | growth inhibition (GI) [29]: Dose-dependent effect | Activity [30]: Active | Ratio IC50 [31]: 24.4 | IC50 [32]: 11.8 µM | growth inhibition (GI) [33]: Dose-dependent effect

SMILES: Cc1ccc(C(=O)O[C@@H](C(N)=O)C2(C)CO2)c2ccccc12 (stereo partly specified)
IC50 [1]: 9 µM | IC50 [2]: 5 µM
